The results in this text go back to PubChem BioAssay AID288 (DTP/NCI, 2004).

Several values for one entry are separate records, joined by “and”; a condition that tells them apart may be missing. Identical values can stand only once. Results filed as inconclusive are left out.

The subject of this assay is BDF1 mice, M5076 sarcoma s.c., survival/tumor T/C. Briefly: NCI In Vivo Anticancer Drug Screen. Data for tumor model Sarcoma M5076 (subcutaneous) in B6D2F1 (BDF1) mice. On the procedure: The antitumor activity of compounds was measured in mice bearing transplantable tumors. Survival or tumor size were measured and the results are expressed as the measurement made in the treated group (T) divided by the measurement made in the vehicle treated control group (C). The tumor model used in this assay is Sarcoma M5076 (subcutaneous) in B6D2F1 (BDF1) mice

[1] abbreviates: endpoint: median survival time, dose: 50.0 mg/kg/injection, schedule: Q04DX003 (ip), vehicle: saline with Tween-80, higher = longer survival.

Regarding `C[C@@H](CN1CC(=O)NC(=O)C1)N1CC(=O)NC(=O)C1`, the T/C runs as follows: (endpoint: median survival time, dose: 32.0 mg/kg/injection, schedule: Q01DX009 (ip), vehicle: saline with Tween-80, higher = longer survival) 119 % of control; (endpoint: median survival time, dose: 64.0 mg/kg/injection, schedule: Q01DX009 (ip), vehicle: saline with Tween-80, higher = longer survival) 108 % of control and 111 % of control; (endpoint: median survival time, dose: 128.0 mg/kg/injection, schedule: Q01DX009 (ip), vehicle: saline with Tween-80, higher = longer survival) 115 % of control and 119 % of control; (endpoint: median tumor weight (est.), dose: 32.0 mg/kg/injection, schedule: Q01DX009 (ip), vehicle: saline with Tween-80, higher = larger tumour) 68 % of control; (endpoint: median tumor weight (est.), dose: 64.0 mg/kg/injection, schedule: Q01DX009 (ip), vehicle: saline with Tween-80, higher = larger tumour) 36 % of control and 58 % of control; (endpoint: median tumor weight (est.), dose: 128.0 mg/kg/injection, schedule: Q01DX009 (ip), vehicle: saline with Tween-80, higher = larger tumour) 18 % of control and 37 % of control. For the same molecule, the T/C (endpoint: median tumor weight (est.), dose: 256.0 mg/kg/injection, schedule: Q01DX009 (ip), vehicle: saline with Tween-80, higher = larger tumour) was 14 % of control.

For the molecule `Cc1ncc([N+](=O)[O-])n1CCO`, the T/C (endpoint: median survival time, dose: 750.0 mg/kg/injection, schedule: Q01DX001 (ip), vehicle: saline, higher = longer survival) was 116 % of control; the T/C (endpoint: median survival time, dose: 1000.0 mg/kg/injection, schedule: Q01DX001 (ip), vehicle: saline with Tween-80, higher = longer survival) was 105 % of control and 85 % of control; the T/C (endpoint: median survival time, dose: 1500.0 mg/kg/injection, schedule: Q01DX001 (ip), vehicle: saline, higher = longer survival) is 89 % of control and 90 % of control; the T/C (endpoint: median survival time, dose: 2000.0 mg/kg/injection, schedule: Q01DX001 (ip), vehicle: saline with Tween-80, higher = longer survival) is 91 % of control; the T/C (endpoint: median survival time, dose: 2000.0 mg/kg/injection, schedule: Q01DX001 (ip), vehicle: saline, higher = longer survival) is 87 % of control (2×) and 89 % of control; the T/C (endpoint: median survival time, dose: 2500.0 mg/kg/injection, schedule: Q01DX001 (ip), vehicle: saline with Tween-80, higher = longer survival) is 78 % of control.

For the molecule `O=C1N=C(Oc2ccccc2)SC1=O`, the T/C under setting [1] is 106 % of control.

For `CC1CCC(NC(=O)N(CCCl)N=O)CC1` (configuration not stated), the T/C by setting is: (endpoint: median survival time, dose: 2.5 mg/kg/injection, schedule: Q04DX009 (ip), vehicle: saline with Tween-80, higher = longer survival) 109 % of control; (endpoint: median survival time, dose: 5.0 mg/kg/injection, schedule: Q02DX011 (ip), vehicle: Klucel (hydroxypropylcellulose) (HPC), higher = longer survival) 296 % of control; (endpoint: median survival time, dose: 5.0 mg/kg/injection, schedule: Q02DX033 (ip), vehicle: saline with Tween-80, higher = longer survival) 230 % of control; (endpoint: median survival time, dose: 5.0 mg/kg/injection, schedule: Q04DX005 (ip), vehicle: other, higher = longer survival) 191 % of control; (endpoint: median survival time, dose: 5.0 mg/kg/injection, schedule: Q04DX009 (ip), vehicle: saline with Tween-80, higher = longer survival) 150 % of control; (endpoint: median survival time, dose: 10.0 mg/kg/injection, schedule: Q02DX033 (ip), vehicle: saline with Tween-80, higher = longer survival) 252 % of control. Further, the T/C by setting is: (endpoint: median survival time, dose: 10.0 mg/kg/injection, schedule: Q04DX005 (ip), vehicle: other, higher = longer survival) 233 % of control; (endpoint: median survival time, dose: 10.0 mg/kg/injection, schedule: Q04DX009 (ip), vehicle: saline with Tween-80, higher = longer survival) 298 % of control; (endpoint: median survival time, dose: 20.0 mg/kg/injection, schedule: Q01DX003 (ip), vehicle: saline with Tween-80, higher = longer survival) 160 % of control; (endpoint: median survival time, dose: 20.0 mg/kg/injection, schedule: Q04DX009 (ip), vehicle: saline with Tween-80, higher = longer survival) 320 % of control; (endpoint: median survival time, dose: 30.0 mg/kg/injection, schedule: Q01DX001 (ip), vehicle: saline with Tween-80, higher = longer survival) 154 % of control and 171 % of control; (endpoint: median survival time, dose: 30.0 mg/kg/injection, schedule: Q01DX001 (oral), vehicle: saline with Tween-80, higher = longer survival) 160 % of control and 191 % of control. Moreover, the T/C is 179 % of control and 237 % of control (2×) (endpoint: median survival time, dose: 40.0 mg/kg/injection, schedule: Q01DX001 (oral), vehicle: saline with Tween-80, higher = longer survival); 153 % of control and 226 % of control (2×) (endpoint: median survival time, dose: 50.0 mg/kg/injection, schedule: Q01DX001 (ip), vehicle: saline with Tween-80, higher = longer survival); 194 % of control and 229 % of control (2×) (endpoint: median survival time, dose: 50.0 mg/kg/injection, schedule: Q01DX001 (oral), vehicle: saline with Tween-80, higher = longer survival); 229 % of control (2×) and 233 % of control (endpoint: median survival time, dose: 60.0 mg/kg/injection, schedule: Q01DX001 (oral), vehicle: saline with Tween-80, higher = longer survival).

`COC(=N)CCCCC(=N)OC`: the T/C (endpoint: median survival time, dose: 50.0 mg/kg/injection, schedule: Q01DX009 (ip), vehicle: saline, higher = longer survival) is 98 % of control; the T/C (endpoint: median survival time, dose: 100.0 mg/kg/injection, schedule: Q01DX009 (ip), vehicle: saline, higher = longer survival) was 98 % of control; the T/C (endpoint: median survival time, dose: 200.0 mg/kg/injection, schedule: Q01DX009 (ip), vehicle: saline, higher = longer survival) is 98 % of control; the T/C (endpoint: median tumor weight (est.), dose: 50.0 mg/kg/injection, schedule: Q01DX009 (ip), vehicle: saline, higher = larger tumour) was 87 % of control; the T/C (endpoint: median tumor weight (est.), dose: 100.0 mg/kg/injection, schedule: Q01DX009 (ip), vehicle: saline, higher = larger tumour) was 86 % of control.

Take `N[C@H](C(=O)O)[C@@H]1CC(Cl)=NO1`: the T/C was 2 % of control (endpoint: mean tumor weight, dose: 2.0 mg/kg/injection, schedule: Q02DX011 (ip), vehicle: saline, higher = larger tumour); 165 % of control (endpoint: median survival time, dose: 2.0 mg/kg/injection, schedule: Q01DX010 (ip), vehicle: saline, higher = longer survival); 177 % of control (endpoint: median survival time, dose: 4.0 mg/kg/injection, schedule: Q01DX010 (ip), vehicle: saline, higher = longer survival); 178 % of control (endpoint: median survival time, dose: 8.0 mg/kg/injection, schedule: Q01DX010 (ip), vehicle: saline, higher = longer survival); 90 % of control (endpoint: median survival time, dose: 16.0 mg/kg/injection, schedule: Q01DX010 (ip), vehicle: saline, higher = longer survival); 171 % of control and 176 % of control (endpoint: median survival time, dose: 32.0 mg/kg/injection, schedule: Q04DX005 (ip), vehicle: saline, higher = longer survival). Moreover, the T/C reads like this: (endpoint: median survival time, dose: 64.0 mg/kg/injection, schedule: Q04DX005 (ip), vehicle: saline, higher = longer survival) 184 % of control and 186 % of control; (endpoint: median survival time, dose: 128.0 mg/kg/injection, schedule: Q04DX005 (ip), vehicle: saline, higher = longer survival) 193 % of control and 195 % of control.

On to `Nc1nc2c(c(=O)[nH]1)N(C=O)C(CNc1ccc(C(=O)N[C@@H](CCC(=O)O)C(=O)O)cc1)CN2` (some centres not stated), for which the T/C (endpoint: median survival time, dose: 50.0 mg/kg/injection, schedule: Q01DX009 (ip), vehicle: sodium bicarbonate, higher = longer survival) was 101 % of control; the T/C (endpoint: median survival time, dose: 100.0 mg/kg/injection, schedule: Q01DX009 (ip), vehicle: sodium bicarbonate, higher = longer survival) is 96 % of control; the T/C (endpoint: median survival time, dose: 200.0 mg/kg/injection, schedule: Q01DX009 (ip), vehicle: sodium bicarbonate, higher = longer survival) was 101 % of control.

As for `O=C1c2ccccc2C(=O)c2c(NCCNCCO)ccc(O)c21`, the T/C is, setting by setting: (endpoint: median survival time, dose: 12.5 mg/kg/injection, schedule: Q04DX003 (ip), vehicle: saline with Tween-80, higher = longer survival) 90 % of control; (endpoint: median survival time, dose: 25.0 mg/kg/injection, schedule: Q04DX003 (ip), vehicle: saline with Tween-80, higher = longer survival) 116 % of control; under setting [1], 103 % of control; (endpoint: median survival time, dose: 100.0 mg/kg/injection, schedule: Q04DX003 (ip), vehicle: saline with Tween-80, higher = longer survival) 104 % of control and 107 % of control; (endpoint: median survival time, dose: 150.0 mg/kg/injection, schedule: Q04DX003 (ip), vehicle: saline with Tween-80, higher = longer survival) 122 % of control.

As for `NC(C/[N+]([O-])=N/O)C(=O)O` (configuration not stated), the T/C by setting is: (endpoint: mean tumor weight, dose: 62.5 mg/kg/injection, schedule: Q02DX011 (ip), vehicle: saline, higher = larger tumour) 88 % of control; (endpoint: mean tumor weight, dose: 125.0 mg/kg/injection, schedule: Q02DX011 (ip), vehicle: saline, higher = larger tumour) 108 % of control; (endpoint: mean tumor weight, dose: 250.0 mg/kg/injection, schedule: Q02DX011 (ip), vehicle: saline, higher = larger tumour) 42 % of control; (endpoint: median survival time, dose: 8.78 mg/kg/injection, schedule: Q01DX010 (ip), vehicle: alkali diluted with saline, higher = longer survival) 88 % of control and 90 % of control; (endpoint: median survival time, dose: 13.2 mg/kg/injection, schedule: Q01DX010 (ip), vehicle: alkali diluted with saline, higher = longer survival) 91 % of control and 93 % of control; (endpoint: median survival time, dose: 19.8 mg/kg/injection, schedule: Q01DX010 (ip), vehicle: alkali diluted with saline, higher = longer survival) 118 % of control. Moreover, the T/C reads like this: (endpoint: median survival time, dose: 29.6 mg/kg/injection, schedule: Q01DX010 (ip), vehicle: alkali diluted with saline, higher = longer survival) 114 % of control and 118 % of control; (endpoint: median survival time, dose: 44.4 mg/kg/injection, schedule: Q01DX010 (ip), vehicle: alkali diluted with saline, higher = longer survival) 105 % of control and 106 % of control; (endpoint: median survival time, dose: 52.7 mg/kg/injection, schedule: Q04DX005 (ip), vehicle: alkali diluted with saline, higher = longer survival) 89 % of control and 90 % of control; (endpoint: median survival time, dose: 66.7 mg/kg/injection, schedule: Q01DX010 (ip), vehicle: alkali diluted with saline, higher = longer survival) 115 % of control and 116 % of control; (endpoint: median survival time, dose: 79.0 mg/kg/injection, schedule: Q04DX005 (ip), vehicle: alkali diluted with saline, higher = longer survival) 93 % of control; (endpoint: median survival time, dose: 119.0 mg/kg/injection, schedule: Q04DX005 (ip), vehicle: alkali diluted with saline, higher = longer survival) 123 % of control. Further, the T/C by setting is: (endpoint: median survival time, dose: 267.0 mg/kg/injection, schedule: Q04DX005 (ip), vehicle: alkali diluted with saline, higher = longer survival) 106 % of control and 112 % of control; (endpoint: median survival time, dose: 400.0 mg/kg/injection, schedule: Q04DX005 (ip), vehicle: alkali diluted with saline, higher = longer survival) 115 % of control; (endpoint: median tumor weight (est.), dose: 50.0 mg/kg/injection, schedule: Q02DX011 (ip), vehicle: alkali diluted with saline, higher = larger tumour) 91 % of control; (endpoint: median tumor weight (est.), dose: 100.0 mg/kg/injection, schedule: Q02DX011 (ip), vehicle: alkali diluted with saline, higher = larger tumour) 66 % of control.
